Results on five compounds are retold here after patent publication US20230356105A1, “TETRAAZADODECANE BASED CHELATING AGENTS FOR SEPARATION OF RARE EARTH ELEMENTS AND METHOD THEREFOR” (Ustav Organicke Chemie a Biochemie AV CR V.V.I., priority 2020, published 2023).

Format in all cases: physicochemical
Data set [1] is described as follows: Separation of industrially relevant binary mixtures by precipitation using L1, L2 and L3 (Example 10). The note with it: supernatant. The procedure:
Analogous to Example 7), three sets of reaction mixtures with two metals and either compound L1, L2, or L3 were prepared in a 96-well plate with the following differences: each well was equipped with one PTFE-coated magnetic stir bar, the well plate was sealed with a silicon cover, and the reaction mixtures were stirred on a magnetic stirrer for 2 days at room temperature. Analogous to Example 7), the well plate was then centrifuged and concentrations of the metals were determined using ICP-OES. […] It is evident from the results that certain degrees of enrichment are achieved for very different combinations of metals, and that ligands L1, L2, and L3 have different selectivities for given combinations of metals.

Data set [2] is described as follows: Separation of binary mixture of rare-earth metals by precipitation using L6 (Example 9). Conditions: supernatant; for [mM] M1: with Nd.
Data set [3] can be described thus: Use of additives to improve separation of Nd/Dy mixture by precipitation with L5 (Example 18). The note with it: 11 mM L5. The procedure:
Stock solutions were pipetted into plastic 1×1 cm cuvettes to prepare reaction mixtures with concentrations as follows: • 1. […] 5 mM NdCl3 • 3. 5 mM DyCl3 • 4. 500 mM MOPS pH=7 • 5. the additive of interest, in a variable concentration; if possible, stock solutions were prepared from Na^+ salt forms of the compound; if not, the stock solutions were titrated by NaOH/HCl to pH=7 prior to addition (see Table 12 for additives and concentrations)
These aqueous reaction mixtures, each prepared to a total volume of 2.0 mL with the addition of water as necessary, were mixed by the use of a PTFE-coated stir bar on a magnetic stirrer. The cuvettes were sealed with transparent tape to prevent evaporation overnight. The reaction mixtures were stirred for 18 hours, at which point 500 μL aliquots of each reaction mixture were transferred into plastic 2 mL Eppendorf tubes and centrifuged. The supernatants were carefully pipetted out and transferred to a new set of tubes. The precipitate was dissolved by addition of 500 μL 1M HCl. The absolute concentration of Nd and Dy in each supernatant and precipitate was determined by ICP-OES.

Turning to `O=C(O)CN1CCNCCN(CC(=O)O)CCN(Cc2ccc(C(=O)O)cc2)CC1` [L3, 2,2′-(4-(4-carboxybenzyl)-1,4,7,10-tetraazacyklododekane-1,7-diyl)Diacetic Acid], the “[mM] M1” value came to 0.016 mM in data set [1] (M1/M2=Eu/Y); 0.111 mM in data set [1] (M1/M2=La/Ce); 0.000 mM in data set [1] (M1/M2=Nd/Ce); 0.000 mM in data set [1] (M1/M2=Nd/Dy); 0.000 mM in data set [1] (M1/M2=Nd/La); 0.000 mM in data set [1] (M1/M2=Nd/Pr). For the same compound, the “[mM] M1” value in data set [1] (M1/M2=Nd/Tb) is 0.008 mM; in data set [1] (M1/M2=Pr/Ce), 0.060 mM; in data set [1] (M1/M2=Pr/Dy), 0.018 mM; in data set [1] (M1/M2=Pr/La) it was 0.014 mM; in data set [1] (M1/M2=Tb/Dy), 0.010 mM; in data set [1] (M1/M2=Tb/Eu) it was 0.018 mM. Also, the “[mM] M1” value is 0.015 mM in data set [1] (M1/M2=Tb/Pr) and 0.018 mM in data set [1] (M1/M2=Tb/Y). For the same compound, the “[mM] M2” value in data set [1] (M1/M2=Eu/Y) is reported as 0.076 mM; in data set [1] (M1/M2=La/Ce) it was 0.036 mM; in data set [1] (M1/M2=Nd/Ce), 0.745 mM; in data set [1] (M1/M2=Nd/Dy) it was 0.025 mM; in data set [1] (M1/M2=Nd/La), 0.102 mM; in data set [1] (M1/M2=Nd/Pr), 0.016 mM. Moreover, the “[mM] M2” value amounted to 0.008 mM in data set [1] (M1/M2=Nd/Tb); 0.021 mM in data set [1] (M1/M2=Pr/Ce); 0.034 mM in data set [1] (M1/M2=Pr/Dy); 0.098 mM in data set [1] (M1/M2=Pr/La); 0.027 mM in data set [1] (M1/M2=Tb/Dy); 0.017 mM in data set [1] (M1/M2=Tb/Eu). Further, the “[mM] M2” value in data set [1] (M1/M2=Tb/Pr) is listed as 0.018 mM; in data set [1] (M1/M2=Tb/Y) it was 0.078 mM.
In the case of `O=C(O)CN1CCN(CC(=O)O)CCN(Cc2ccc(-c3ccccc3)cc2)CCN(CC(=O)O)CC1` [L6, 2,2′,2″-(10-([1,1′-biphenyl]-4-ylmethyl)-1,4,7,10-tetraazacyclododecane-1,4,7-triyl)triacetic acid], the “[mM] M1” value in data set [2] (M1=Ce) worked out at 0.596 mM; in data set [2] (M1=Dy) it was 0.459 mM; in data set [2] (M1=Er), 2.027 mM; in data set [2] (M1=Eu), 0.711 mM; in data set [2] (M1=Gd) it was 0.195 mM; in data set [2] (M1=Ho), 1.943 mM. In addition, the “[mM] M1” value in data set [2] (M1=La) is 0.620 mM; in data set [2] (M1=Lu) it was 3.231 mM; in data set [2] (M1=Nd), 0.496 mM; in data set [2] (M1=Pr), 0.524 mM; in data set [2] (M1=Sc), 2.414 mM; in data set [2] (M1=Sm), 0.541 mM. Further, the “[mM] M1” value in data set [2] (M1=Tb) is 0.428 mM; in data set [2] (M1=Tm), 2.914 mM; in data set [2] (M1=Y), 1.592 mM; in data set [2] (M1=Yb), 2.243 mM. In addition, the “[mM] Nd” value in data set [2] (M1=Ce) stood at 0.556 mM; in data set [2] (M1=Dy), 0.135 mM; in data set [2] (M1=Er) it was 0.702 mM; in data set [2] (M1=Eu) it was 0.566 mM; in data set [2] (M1=Gd), 0.166 mM; in data set [2] (M1=Ho), 0.618 mM. Further, the “[mM] Nd” value in data set [2] (M1=La) came to 0.606 mM; in data set [2] (M1=Lu) it was 0.841 mM; in data set [2] (M1=Nd) it was 0.496 mM; in data set [2] (M1=Pr), 0.559 mM; in data set [2] (M1=Sc) it was 0.594 mM; in data set [2] (M1=Sm), 0.512 mM. Besides, the “[mM] Nd” value worked out at 0.178 mM in data set [2] (M1=Tb), 0.748 mM in data set [2] (M1=Tm), 1.463 mM in data set [2] (M1=Y) and 0.495 mM in data set [2] (M1=Yb).
For `O=C(O)CO` [glycolate], in data set [3] (additive 5 mM), the “Precipitate concentration [mM] Dy” value is listed as 2.61 mM, the “Precipitate concentration [mM] Nd” value is reported as 4.64 mM, the “Supernatant concentration [mM] Dy” value is on record as 1.73 mM and the “Supernatant concentration [mM] Nd” value is 0.09 mM. In addition, in data set [3] (additive 10 mM), the “Precipitate concentration [mM] Dy” value worked out at 1.71 mM, the “Precipitate concentration [mM] Nd” value turned out to be 4.92 mM, the “Supernatant concentration [mM] Dy” value is 2.93 mM and the “Supernatant concentration [mM] Nd” value is listed as 0.20 mM. Besides, in data set [3] (additive 15 mM), the “Precipitate concentration [mM] Dy” value was 1.11 mM, the “Precipitate concentration [mM] Nd” value amounted to 4.54 mM, the “Supernatant concentration [mM] Dy” value is recorded as 3.13 mM and the “Supernatant concentration [mM] Nd” value is 0.35 mM. Besides, in data set [3] (additive 20 mM), the “Precipitate concentration [mM] Dy” value amounted to 0.82 mM, the “Precipitate concentration [mM] Nd” value is reported as 4.33 mM, the “Supernatant concentration [mM] Dy” value was 3.82 mM and the “Supernatant concentration [mM] Nd” value was determined as 0.64 mM.
`N#C[S-].[Na+]` [thiocyanate]: in data set [3] (additive 100 mM), the “Precipitate concentration [mM] Dy” value is given as 4.46 mM, the “Precipitate concentration [mM] Nd” value came out at 4.66 mM, the “Supernatant concentration [mM] Dy” value is given as 0.31 mM and the “Supernatant concentration [mM] Nd” value was found to be 0.14 mM. Further, in data set [3] (additive 200 mM), the “Precipitate concentration [mM] Dy” value is on record as 4.42 mM, the “Precipitate concentration [mM] Nd” value was found to be 4.60 mM, the “Supernatant concentration [mM] Dy” value is 0.51 mM and the “Supernatant concentration [mM] Nd” value amounted to 0.41 mM. Moreover, in data set [3] (additive 500 mM), the “Precipitate concentration [mM] Dy” value was 4.16 mM, the “Precipitate concentration [mM] Nd” value worked out at 4.65 mM, the “Supernatant concentration [mM] Dy” value stood at 0.72 mM and the “Supernatant concentration [mM] Nd” value is on record as 0.36 mM. Further, in data set [3] (additive 1000 mM), the “Precipitate concentration [mM] Dy” value is given as 3.26 mM, the “Precipitate concentration [mM] Nd” value is recorded as 4.63 mM, the “Supernatant concentration [mM] Dy” value is given as 1.70 mM and the “Supernatant concentration [mM] Nd” value was found to be 0.41 mM.
For `O=C(O)[C@@H](O)c1ccccc1` [s-mandelic acid], in data set [3] (additive 20 mM), the “Precipitate concentration [mM] Dy” value was found to be 1.13 mM, the “Precipitate concentration [mM] Nd” value turned out to be 4.52 mM, the “Supernatant concentration [mM] Dy” value is 3.77 mM and the “Supernatant concentration [mM] Nd” value turned out to be 0.47 mM.
